Positions of bridges follow the written chain, without caps; N, C: chain ends. Residues, ends and D or L forms follow the SMILES beside them. Chains are numbered I, II in the order given. *: point of attachment. FITC = O=C1OC2(c3ccc(O)cc3Oc3cc(O)ccc32)c2ccc(NC(=S)*)cc21
What was measured:
CCL8 = biological target: T1, CCL8 (Homo sapiens, UniProt P80075); assay: Fluorescence polarisation (anisotropy) assay; type: binding; details: BK1.1FITC Ala mutants, CCL8
T1 construct: SUMO (in-house protein only) (cleaved yes); made in house; host or cells: Escherichia coli RosettaGami 2 (DE3)
T1 sequence (P80075 24-99): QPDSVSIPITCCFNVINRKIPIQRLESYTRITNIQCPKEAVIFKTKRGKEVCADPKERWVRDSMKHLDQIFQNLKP
Text: FIG. 14. Characterisation of P672_PEP-FITC by fluorescence polarisation. […] Residue C30 was mutated to A to avoid an unpaired cysteine residue. The residues corresponding to the above peptide are wholly contained within the CCL8-binding region of P672_RHIPU transferred in the hybrid evasin P672:EVA1 (SEQ ID 76, see FIG. 5). […] (SEQ ID NO: 90). FIG. 14(A). […] The curve was fitted to the two site-total and non-specific binding model in GraphPad Prism 6. Data are shown as mean and SEM of three independent experiments, with each independent experiment performed as three technical replicates. The affinity constant Kd was calculated in GraphPad Prism from the curve fit with the standard error reported.
FIG. 14(B). […] The measured fluorescence anisotropy (y-axis) of P672_PEP-FITC (50 nM) following binding to a fixed dose (1 μM)) of CCL7, CCL8, CCL18 and CXCL1 (negative control). […] Statistical significance was determined using one-way ANOVA with Sidak's correction for multiple comparisons using Graph Pad Prism 6. **=p<0.005, ****=P<0.00005, ns=not significant.
FIG. 15(C). […] In each case 100 μM (++) or […] (+) of P672_PEP was incubated with P672_PEP-FITC (50 nM)/chemokine (1 μM CCL7 and CCL18; 500 nM CCL8) and the resulting anisotropy measured. […] Experiment carried out in triplicate where each data point is the average of one experiment carried out in technical triplicate. Mean with SEM shown and statistical significance was determined using one-way ANOVA with Sidak's correction for multiple comparisons using Graph Pad Prism 6. *=p<0.05, ***=p<0.0005, ****=P<0.00005, ns=not significant.
Fluorescence polarization assays were performed using a Clariostar (BMG Tech) plate reader with the supplied FITC excitation and emission filters using 96 half area well plates (Corning). The buffer used (FP assay buffer) was 50 mM HEPES, 150 mM NaCl, 0.1% BSA, 0.002% TWEEN-20, 0.2% DMSO, pH 7.4 and the final volume in each well was 30 μL. Polarization was converted to anisotropy using the equation A=(2*P)/(3−P) where P is polarization and A is anisotropy. For each peptide tested the gain was set to 35 mP and adjusted to a well containing fluorescent peptide only. The polarization of the emitted light in the FITC emission channel was then determined. Experiments were performed as two technical and three biological replicates. Screening of P672 peptide fragments was achieved through incubation of each peptide (50 nM) with 1 μM CCL8 (Peprotech) for 30 minutes in FP assay buffer and the resulting anisotropy of the emitted light determined as above. The chemokine cross binding screen was performed by incubating 1 μM chemokine (Peprotech) with 50 nM BK1.1FITC for half an hour in FP assay buffer and the resulting anisotropy of the emitted light determined as above. […] The anisotropy was plotted as a function of CCL8 concentration and fitted to the equation: Y=Bmax*X/(KD+X)+NS*X+Background, where Y is the measured anisotropy, X is the concentration of CCL8 added, Bmax is the maximum binding, KD is the equilibrium dissociation constant, NS is the slope of the nonlinear regression and Background is the anisotropy when no CCL8 is present, in Graph Pad Prism. Displacement assays were carried out with CCL7, CCL8, and CCL18 (Peprotech, 1 μM). […] For all FP assays, the experiments were carried out as two technical and three biological replicates.

human CCL8-647 = biological target: T2, human CCL8-647 (Homo sapiens, UniProt P80075); assay: Fluorescent chemokine binding to THP-1 cells (flow cytometry); type: cell-based
T2 construct: purchased Almac (UK)
T2 sequence (P80075 24-99): T1 sequence (P80075 24-99)
Description: P672_PEP_SCRAM (C-terminally amidated)=[…] FIG. 16(A). […] 60 μM (+) P672_PEP or P672_PEP_SCRAM were incubated with CCL8-647 (2.5 nM) for half an hour at 37° C. prior to adding to THP-1 cells and incubating everything together for a further half an hour at 37° C. Cells were then analysed using fluorescence assisted cell sorting (10,000 cells analysed) and MFI recorded. Experiment carried out in triplicate where each data point is the average of one experiment carried out in technical triplicate. Mean with SEM shown and statistical significance was determined using one-way ANOVA with Sidak's correction for multiple comparisons using Graph Pad Prism 6. ****=P<0.00005, ns=not significant.
Data are shown as mean of two technical replicates. […] Curves were fitted with 4 parameters to estimate IC50.
Fluorescent chemokine (conjugated to AlexaFluor-647) binding to THP-1 cells results in an increase in the cellular fluorescence intensity, which is quantitatively measured using flow cytometry.
Fluorescent Chemokine/Receptor Blocking Assay CCL8-647 (2.5 nM, final) or […] (1.2 nM, final) was incubated for 30 minutes with varying doses of peptide (0-100 μM, final concentration) in 50 μL assay buffer (RPMI-1640+L-glutamine (4 mM)+10% heat treated fetal bovine serum+0.2% DMSO) at 37° C. […]

CCL8_HUMAN = biological target: T3, CCL8_HUMAN (Homo sapiens, UniProt P80075); assay: Neutralisation of chemokine induced THP-1 cell migration; type: cell-based
T3 sequence (P80075 24-99): T1 sequence (P80075 24-99)
Description: Table 1. Tick CKBPs described in PCT/GB2017/050563 and [17]. Tick peptide sequences isolated in yeast surface display fluorescent-activated cell sorting (FACS) screens using a labelled chemokine. Identity with Evasin-1, 4 or 3 was calculated using BLAST. Abbreviations: IXORI—Ixodes ricinus, RHISA—Rhipicephalus sanguineus, AMBMA—Amblyomma maculatum, AMBPA—Amblyomma parvum, AMBTR—Amblyomma triste, AMBAM—Amblyomma americanum, AMBCA—Amblyomma cajennense, RHIPU—Rhipicephalus pulchellus. Table 2A-C. Binding characteristics of tick CKBPs previously disclosed (PCT/GB2017/050563 and [17]). All members of the human chemokine family[164] are listed in column 1. Binding to human chemokines was determined for 14 tick CKBPs using biolayer interferometry (BLI) with calculated Kd shown as Molar (Moles/Litre). Binding data for 17 other novel tick CKBPs was assayed using yeast surface display[17,166],with positive binding results shown as “YES”. For biolayer interferometry, His-tagged purified tick CKBP was bound to a Ni-NINTA sensor on an OctetRed® 384 system, and then binding to each chemokine listed (with the exception of CCL25, CCL26, CXCL16, CXCL17, CXCL4L1, XCL2) was assayed in a cross-binding screen at a chemokine concentration of 300 nM as described. For those chemokines showing binding to a tick CKBP in the cross-binding screen, binding assays were repeated using different doses of chemokine. Association, equilibrium and dissociation data were analysed using Octet software to create corresponding fitted curves, and used to calculate Kd. For yeast surface display, (YSD) background fluorescence was controlled for by using either an empty vector or by omitting the chemokine (i.e. using streptavidin-Alexa647 alone). An arbitrary threshold of >3 fold over background mean fluorescence intensity was chosen to describe confirmed re-tests. Where binding was detected data are indicated as “YES”. […] For yeast surface display data, empty cells represent chemokines that were not tested. Binding data published in relation to previously described tick CKBPs (Evasins-1, 4 and 3) is also shown for comparison in each of FIGS. 2A-C, with the relevant data obtained from publications: [20-22,32]. Table 3: Neutralisation of human chemokines by tick CKBPs previously disclosed (PCT/GB2017/050563 and [17]). Neutralising activity was determined using a quantitative THP1 cell migration assay in a 96-well Boyden chamber with chemokine in the bottom chamber as described. Cells migrating through to the bottom chamber at 4 hours were counted using flow cytometry in a 96 well plate format. IC50 for neutralisation was determined at the chemokine EC80 dose as determined using a range of tick CKBP concentrations. Data was analysed using GraphPad Prism to determine IC50, which is shown as Molar (Moles/Litre). Empty cells represent experiments not done. Table 4—Other previously described tick CKBPs. Tick CKBPs that were also described in PCT/GB2017/050563 and Singh et al. are indicated in “Notes”. Table 5.—Novel tick CKBPs of the invention. Table 6. […] The peptide sequence prefix indicates the identity, and suffix indicate the tick species as follows: AMBCA, Amblyomma cajennense and IXORI, Ixodes ricinus. […] Individual yeast clones recovered from the library were re-tested using a FACS (fluorescence activated cell sorting), experiment. The binding of the peptide to the chemokine was assayed by measuring the percent (%), of yeast cells expressing the given peptide that exceeded a background threshold set by measuring the fluorescence of the yeast library pool treated with streptavidin-[…] alone. When more than one independent yeast clone was isolated for a given peptide-chemokine combination, the mean percent shift was calculated and reported in column 3.

For C[C@H](NC(=O)[C@@H](NC(=O)[C@H](C)NC(=O)[C@@H]1CCCN1C(=O)[C@H](CCCCN)NC(=O)[C@H](Cc1ccccc1)NC(=O)[C@H](Cc1ccccc1)NC(=O)[C@H](CC(=O)O)NC(=O)[C@H](CCC(=O)O)NC(=O)[C@H](Cc1ccc(O)cc1)NC(=O)[C@H](CC(=O)O)NC(=O)[C@H](CCC(=O)O)NC(=O)[C@H](CC(=O)O)NC(=O)[C@H](CCC(=O)O)NC(=S)Nc1ccc2c(c1)C(=O)OC21c2ccc(O)cc2Oc2cc(O)ccc21)[C@@H](C)O)C(=O)N[C@@H](Cc1ccc(O)cc1)C(=O)N[C@@H](Cc1ccccc1)C(N)=O [V28A] ({FITC}-EDEDYEDFFKPATAYF-NH2), the “Fold change (Kd versus WT)” value (CCL8) was 3.8.
For CC(C)[C@H](NC(=O)[C@@H]1CCCN1C(=O)[C@H](CCCCN)NC(=O)[C@H](Cc1ccccc1)NC(=O)[C@H](Cc1ccccc1)NC(=O)[C@H](CC(=O)O)NC(=O)[C@H](CCC(=O)O)NC(=O)[C@H](Cc1ccc(O)cc1)NC(=O)[C@H](CC(=O)O)NC(=O)[C@H](CCC(=O)O)NC(=O)[C@H](CC(=O)O)NC(=O)[C@H](CCC(=O)O)NC(=S)Nc1ccc2c(c1)C(=O)OC21c2ccc(O)cc2Oc2cc(O)ccc21)C(=O)N[C@H](C(=O)N[C@@H](C)C(=O)N[C@@H](Cc1ccc(O)cc1)C(=O)N[C@@H](C)C(N)=O)[C@@H](C)O [F32A] ({FITC}-EDEDYEDFFKPVTAYA-NH2), the “Fold change (Kd versus WT)” value (CCL8) was 2.3.
In the case of CC(C)[C@H](NC(=O)[C@@H]1CCCN1C(=O)[C@H](CCCCN)NC(=O)[C@H](Cc1ccccc1)NC(=O)[C@H](C)NC(=O)[C@H](CC(=O)O)NC(=O)[C@H](CCC(=O)O)NC(=O)[C@H](Cc1ccc(O)cc1)NC(=O)[C@H](CC(=O)O)NC(=O)[C@H](CCC(=O)O)NC(=O)[C@H](CC(=O)O)NC(=O)[C@H](CCC(=O)O)NC(=S)Nc1ccc2c(c1)C(=O)OC21c2ccc(O)cc2Oc2cc(O)ccc21)C(=O)N[C@H](C(=O)N[C@@H](C)C(=O)N[C@@H](Cc1ccc(O)cc1)C(=O)N[C@@H](Cc1ccccc1)C(N)=O)[C@@H](C)O [F24A] ({FITC}-EDEDYEDAFKPVTAYF-NH2), the “Fold change (Kd versus WT)” value (CCL8) is reported as 1.5.
Work on CC(C)[C@H](NC(=O)[C@@H]1CCCN1C(=O)[C@H](CCCCN)NC(=O)[C@H](Cc1ccccc1)NC(=O)[C@H](Cc1ccccc1)NC(=O)[C@H](CC(=O)O)NC(=O)[C@H](CCC(=O)O)NC(=O)[C@H](Cc1ccc(O)cc1)NC(=O)[C@H](CC(=O)O)NC(=O)[C@H](CCC(=O)O)NC(=O)[C@H](CC(=O)O)NC(=O)[C@H](CCC(=O)O)NC(=O)[C@@H](N)Cc1ccc(O)cc1)C(=O)N[C@H](C(=O)N[C@@H](CSSC[C@H](NC(=O)[C@@H](NC(=O)[C@@H](NC(=O)[C@@H]1CCCN1C(=O)[C@H](CCCCN)NC(=O)[C@H](Cc1ccccc1)NC(=O)[C@H](Cc1ccccc1)NC(=O)[C@H](CC(=O)O)NC(=O)[C@H](CCC(=O)O)NC(=O)[C@H](Cc1ccc(O)cc1)NC(=O)[C@H](CC(=O)O)NC(=O)[C@H](CCC(=O)O)NC(=O)[C@H](CC(=O)O)NC(=O)[C@H](CCC(=O)O)NC(=O)[C@@H](N)Cc1ccc(O)cc1)C(C)C)[C@@H](C)O)C(=O)N[C@@H](Cc1ccc(O)cc1)C(=O)N[C@@H](Cc1ccccc1)C(N)=O)C(=O)N[C@@H](Cc1ccc(O)cc1)C(=O)N[C@@H](Cc1ccccc1)C(N)=O)[C@@H](C)O [BK1.3] (I: H-YEDEDYEDFFKPVTCYF-NH2 / II: H-YEDEDYEDFFKPVTCYF-NH2; disulfide I:15-II:15) yielded an IC50 (human CCL8-647) of 47 nM and an IC50 (CCL8_HUMAN) of 8 nM.
